molecular target: T1, endogenous PIP4K2C C-terminally tagged with HiBiT peptide in MOLT-4 cells (Homo sapiens, UniProt Q8TBX8); test: HiBiT PIP4K2C degradation assay in MOLT-4 cells; type: cell-based; conditions: 24 hours, 10-point dose response, top concentration 10 micromolar, read-out: HiBIT-degradation MOLT4 PIP4k2C 24 hours DC50
T1 construct: to C-terminally tag endogenous PIP4K2C with HiBiT peptide; host or cells: MOLT-4 (CRISPR-Cas9 knock-in clone)
T1 sequence (Q8TBX8 1-421): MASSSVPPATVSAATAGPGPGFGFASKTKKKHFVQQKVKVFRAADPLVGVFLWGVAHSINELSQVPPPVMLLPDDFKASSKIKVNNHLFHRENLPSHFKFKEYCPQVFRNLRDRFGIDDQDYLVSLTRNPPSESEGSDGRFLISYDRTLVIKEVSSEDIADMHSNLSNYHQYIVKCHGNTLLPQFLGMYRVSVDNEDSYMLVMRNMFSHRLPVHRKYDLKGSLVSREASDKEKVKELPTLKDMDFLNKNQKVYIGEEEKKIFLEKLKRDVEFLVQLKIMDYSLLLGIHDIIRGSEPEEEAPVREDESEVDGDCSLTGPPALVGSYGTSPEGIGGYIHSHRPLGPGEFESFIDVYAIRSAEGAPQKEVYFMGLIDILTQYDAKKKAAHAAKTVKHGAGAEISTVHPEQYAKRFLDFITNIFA
Method: Following clonal selection, genotype was confirmed by Sanger sequencing. […] Nano-Glo® HiBiT Lytic Assay System was purchased from Promega (Madison, WI, Catalog number N3030). Cell culture flasks and 384-well microplates were purchased from Corning (Glendale, AZ).
To study PIP4K2C degradation, 384-well plates were plated with a 10-point dose response curve, 3-fold dilution, in duplicate with a top starting concentration of 10 micromolar. Subsequently 22,500 cells were added to each well and incubated at 37C in 5% CO2 for 24 hours. At the end of the incubation time, cells were treated with the Nano-Glo® HiBiT Lytic Detection System following the manufacturer's instructions. Luminescence was measured with a PHERAstar FSX plate reader (BMG Labtech, Cary, NC). The Levenberg-Marquardt algorithm was used to fit a Hill equation to dose-response data to calculate DC50 values (see Table 6).

Compared with `O=C1CCC(N2Cc3cc(OCCCCCCCCCCN4CCC5(CC4)CCN(c4cncc(Nc6ncc(Cl)c(-c7cccc(-c8ccccc8)c7)n6)c4)C5=O)ccc3C2=O)C(=O)N1` (stereo not drawn) [Compound 52, 3-(5-((10-(2-(5-((4-([1,1′-biphenyl]-3-yl)-5-chloropyrimidin-2-yl)amino)pyridin-3-yl)-1-oxo-2,8-diazaspiro[4.5]decan-8-yl)decyl)oxy)-1-oxoisoindolin-2-yl)piperidine-2,6-dione], `O=C1CCC(N2Cc3cc(OCCCCCCCC(=O)N4CCC5(CC4)CCN(c4cncc(Nc6ncc(Cl)c(-c7cccc(-c8ccccc8)c7)n6)c4)C5=O)ccc3C2=O)C(=O)N1` (stereo not drawn) [Compound 63, 3-(5-((8-(2-(5-((4-([1,1′-biphenyl]-3-yl)-5-chloropyrimidin-2-yl)amino)pyridin-3-yl)-1-oxo-2,8-diazaspiro[4.5]decan-8-yl)-8-oxooctyl)oxy)-1-oxoisoindolin-2-yl)piperidine-2,6-dione] is lower in DC50: 500 to 1000 nM for the first, less than 500 nM for the second.

`O=C1CCC(Nc2ccc(N3CCC(CC(=O)N4CCC5(CC4)CCN(c4cncc(Nc6ncc(Cl)c(N7CCC[C@H](O)C7)n6)c4)C5=O)CC3)cc2)C(=O)N1` (stereo partly drawn) [Compound 175, 3-((4-(4-(2-(2-(5-((5-chloro-4-((S)-3-hydroxypiperidin-1-yl)pyrimidin-2-yl)amino)pyridin-3-yl)-1-oxo-2,8-diazaspiro[4.5]decan-8-yl)-2-oxoethyl)piperidin-1-yl)phenyl)amino)piperidine-2,6-dione] and `O=C1CCC(Nc2ccc(N3CCC(CN4CCC5(CC4)CCN(c4cncc(Nc6ncc(Cl)c(N7CCCC(C8CC8)C7)n6)c4)C5=O)CC3)cc2)C(=O)N1` (stereo not drawn) [Compound 212, 3-((4-(4-((2-(5-((5-chloro-4-(3-cyclopropylpiperidin-1-yl)pyrimidin-2-yl)amino)pyridin-3-yl)-1-oxo-2,8-diazaspiro[4.5]decan-8-yl)methyl)piperidin-1-yl)phenyl)amino)piperidine-2,6-dione] cannot be ordered by DC50: less than 500 nM for the first, less than 500 nM for the second.

`O=C1CCC(Nc2ccc(N3CCC(O)(CC(=O)N4CCC5(CC4)CCN(c4cncc(Nc6ncc(Cl)c(-c7cccc(-c8ccccc8)c7)n6)c4)C5=O)CC3)cc2)C(=O)N1` (stereo not drawn) [Compound 180, 3-[4-[4-[2-[2-[5-[[5-chloro-4-(3-phenylphenyl)pyrimidin-2-yl]amino]-3-pyridyl]-1-oxo-2,8-diazaspiro[4.5]decan-8-yl]-2-oxo-ethyl]-4-hydroxy-1-piperidyl]anilino]piperidine-2,6-dione] and `O=C1CCC(Nc2ccc(N3CCC(CC(=O)N4CCC5(CC4)CCN(c4cncc(Nc6ncc(Cl)c(-c7cccc(N8CCCCC8)c7)n6)c4)C5=O)CC3)cc2)C(=O)N1` (stereo not drawn) [Compound 182, 3-((4-(4-(2-(2-(5-((5-chloro-4-(3-(piperidin-1-yl)phenyl)pyrimidin-2-yl)amino)pyridin-3-yl)-1-oxo-2,8-diazaspiro[4.5]decan-8-yl)-2-oxoethyl)piperidin-1-yl)phenyl)amino)piperidine-2,6-dione] cannot be ordered by DC50: less than 500 nM for the first, less than 500 nM for the second.

First: O=C(COc1cccc2c1C(=O)N(C1CCC(=O)NC1=O)C2=O)NCCCCCCCCCC(=O)Nc1cncc(Nc2ncc(Cl)c(-c3cccc(-c4ccccc4)c3)n2)c1 (stereo not drawn) [Compound 85, N-(5-((4-([1,1′-biphenyl]-3-yl)-5-chloropyrimidin-2-yl)amino)pyridin-3-yl)-10-(2-((2-(2,6-dioxopiperidin-3-yl)-1,3-dioxoisoindolin-4-yl)oxy)acetamido)decanamide]
Second: O=C(COc1ccc2c3c(cccc13)C(=O)N2C1CCC(=O)NC1=O)NCCCCCCCCCC(=O)Nc1cncc(Nc2ncc(Cl)c(-c3cccc(-c4ccccc4)c3)n2)c1 (stereo not drawn) [Compound 167, N-(5-((4-([1,1′-biphenyl]-3-yl)-5-chloropyrimidin-2-yl)amino)pyridin-3-yl)-10-(2-((1-(2,6-dioxopiperidin-3-yl)-2-oxo-1,2-dihydrobenzo[cd]indol-6-yl)oxy)acetamido)decanamide]
The DC50 of the first is higher: 500 to 1000 nM for the first, less than 500 nM for the second.

`O=C1CCC(N2C(=O)c3ccc(OCCCCCC(=O)N4CCC5(CC4)CCN(c4cncc(Nc6ncc(Cl)c(-c7cccc(-c8ccccc8)c7)n6)c4)C5=O)cc3C2=O)C(=O)N1` (stereo not drawn) [Compound 75, 5-((6-(2-(5-((4-([1,1′-biphenyl]-3-yl)-5-chloropyrimidin-2-yl)amino)pyridin-3-yl)-1-oxo-2,8-diazaspiro[4.5]decan-8-yl)-6-oxohexyl)oxy)-2-(2,6-dioxopiperidin-3-yl)isoindoline-1,3-dione] and `O=C1CCC(N2C(=O)c3ccc(OCCCCCCCC(=O)N4CCC5(CC4)CCN(c4cncc(Nc6ncc(Cl)c(-c7cccc(-c8ccccc8)c7)n6)c4)C5=O)cc3C2=O)C(=O)N1` (stereo not drawn) [Compound 73, 5-((8-(2-(5-((4-([1,1′-biphenyl]-3-yl)-5-chloropyrimidin-2-yl)amino)pyridin-3-yl)-1-oxo-2,8-diazaspiro[4.5]decan-8-yl)-8-oxooctyl)oxy)-2-(2,6-dioxopiperidin-3-yl)isoindoline-1,3-dione] cannot be ordered by DC50: less than 500 nM for the first, less than 500 nM for the second.

`O=C1CCC(Nc2ccc(N3CCC(CCN4CCC5(CC4)CCN(c4cncc(Nc6ncc(Cl)c(N7CCCCC7)n6)c4)C5=O)CC3)cc2)C(=O)N1` (stereo not drawn) [Compound 173, 3-((4-(4-(2-(2-(5-((5-chloro-4-(piperidin-1-yl)pyrimidin-2-yl)amino)pyridin-3-yl)-1-oxo-2,8-diazaspiro[4.5]decan-8-yl)ethyl)piperidin-1-yl)phenyl)amino)piperidine-2,6-dione] and `CN1CCC(n2cc(-c3nc(Nc4cncc(N5CCC6(CCN(C(=O)CC7CCN(c8ccc(NC9CCC(=O)NC9=O)cc8)CC7)CC6)C5=O)c4)ncc3Cl)cn2)CC1` (stereo not drawn) [Compound 193, 3-((4-(4-(2-(2-(5-((5-chloro-4-(1-(1-methylpiperidin-4-yl)-1H-pyrazol-4-yl)pyrimidin-2-yl)amino)pyridin-3-yl)-1-oxo-2,8-diazaspiro[4.5]decan-8-yl)-2-oxoethyl)piperidin-1-yl)phenyl)amino)piperidine-2,6-dione] cannot be ordered by DC50: less than 500 nM for the first, less than 500 nM for the second.

`O=C1CCC(N2Cc3c(OCCCCCCCCC(=O)N4CCC5(CC4)CCN(c4cncc(Nc6ncc(Cl)c(-c7cccc(-c8ccccc8)c7)n6)c4)C5=O)cccc3C2=O)C(=O)N1` (stereo not drawn) [Compound 71, 3-(4-((9-(2-(5-((4-([1,1′-biphenyl]-3-yl)-5-chloropyrimidin-2-yl)amino)pyridin-3-yl)-1-oxo-2,8-diazaspiro[4.5]decan-8-yl)-9oxononyl)oxy)-1-oxoisoindolin-2-yl)piperidine-2,6-dione] and `O=C1CCC(N2C(=O)c3cccc(OCCCCCCCC(=O)N4CCC5(CC4)CCN(c4cncc(Nc6ncc(Cl)c(-c7cccc(-c8ccccc8)c7)n6)c4)C5=O)c3C2=O)C(=O)N1` (stereo not drawn) [Compound 79, 4-((8-(2-(5-((4-([1,1′-biphenyl]-3-yl)-5-chloropyrimidin-2-yl)amino)pyridin-3-yl)-1-oxo-2,8-diazaspiro[4.5]decan-8-yl)-8-oxooctyl)oxy)-2-(2,6-dioxopiperidin-3-yl)isoindoline-1,3-dione] cannot be ordered by DC50: less than 500 nM for the first, less than 500 nM for the second.

`O=C1CCC(Nc2ccc(C3CCN(CCN4CCC5(CC4)CCN(c4cncc(Nc6ncc(Cl)c(-c7cccc(C8CC8)c7)n6)c4)C5=O)CC3)cc2)C(=O)N1` (stereo not drawn) [Compound 211, 3-((4-(1-(2-(2-(5-((5-chloro-4-(3-cyclopropylphenyl)pyrimidin-2-yl)amino)pyridin-3-yl)-1-oxo-2,8-diazaspiro[4.5]decan-8-yl)ethyl)piperidin-4-yl)phenyl)amino)piperidine-2,6-dione] and `Cn1c(=O)n(C2CCC(=O)NC2=O)c2ccc(C3CCN(CC(=O)N4CCC5(CC4)CCN(c4cncc(Nc6ncc(Cl)c(-c7cccc(C8CC8)c7)n6)c4)C5=O)CC3)cc21` (stereo not drawn) [Compound 209, 3-(5-(1-(2-(2-(5-((5-chloro-4-(3-cyclopropylphenyl)pyrimidin-2-yl)amino)pyridin-3-yl)-1-oxo-2,8-diazaspiro[4.5]decan-8-yl)-2-oxoethyl)piperidin-4-yl)-3-methyl-2-oxo-2,3-dihydro-1H-benzo[d]imidazol-1-yl)piperidine-2,6-dione] cannot be ordered by DC50: less than 500 nM for the first, less than 500 nM for the second.

First: Cn1c(=O)n(C2CCC(=O)NC2=O)c2cc(OCC(=O)NCCCCCCCCCC(=O)Nc3cncc(Nc4ncc(Cl)c(-c5cccc(-c6ccccc6)c5)n4)c3)ccc21 (stereo not drawn) [Compound 51, N-(5-((4-([1,1′-biphenyl]-3-yl)-5-chloropyrimidin-2-yl)amino)pyridin-3-yl)-10-(2-((3-(2,6-dioxopiperidin-3-yl)-1-methyl-2-oxo-2,3-dihydro-1H-benzo[d]imidazol-5-yl)oxy)acetamido)decanamide]
Second: O=C1CCC(N2Cc3cc(C4CCN(CC(=O)N5CCC(C(=O)Nc6cncc(Nc7ncc(Cl)c(-c8cccc(C9CC9)c8)n7)c6)CC5)CC4)ccc3C2=O)C(=O)N1 (stereo not drawn) [Compound 203, N-(5-((5-chloro-4-(3-cyclopropylphenyl)pyrimidin-2-yl)amino)pyridin-3-yl)-1-(2-(4-(2-(2,6-dioxopiperidin-3-yl)-1-oxoisoindolin-5-yl)piperidin-1-yl)acetyl)piperidine-4-carboxamide]
The DC50 of the first is higher: 1000 to 5000 nM for the first, less than 500 nM for the second.
